Reference: ChEMBL document CHEMBL3751693, “Synthesis, antimicrobial evaluation and molecular modeling of 5-hydroxyisoquinolinium salt series; the effect of the hydroxyl moiety” (Bioorg Med Chem, 2016)
pIC50: −log10 of the molar value.

Legend:
[1] = test system: Staphylococcus aureus; assay: Antimicrobial activity against clinical isolate Staphylococcus aureus CCM 451608 after 24 hrs; format: functional; details: CCM 451608, 24 h
[2] = test system: Staphylococcus aureus; assay: Antimicrobial activity against clinical isolate Staphylococcus aureus CCM 451608 after 48 hrs; format: functional; details: CCM 451608, 48 h
[3] = test system: Staphylococcus aureus; assay: Antimicrobial activity against clinical isolate methicillin-resistant Staphylococcus aureus H 599608 after 24 hrs; format: functional; details: H 599608, 24 h
[4] = test system: Staphylococcus aureus; assay: Antimicrobial activity against clinical isolate methicillin-resistant Staphylococcus aureus H 599608 after 48 hrs; format: functional; details: H 599608, 48 h
[5] = test system: Staphylococcus epidermidis; assay: Antimicrobial activity against clinical isolate Staphylococcus epidermidis H 696608 after 24 hrs; format: functional; details: H 696608, 24 h
[6] = test system: Staphylococcus epidermidis; assay: Antimicrobial activity against clinical isolate Staphylococcus epidermidis H 696608 after 48 hrs; format: functional; details: H 696608, 48 h
[7] = test system: Enterococcus sp.; assay: Antimicrobial activity against clinical isolate Enterococcus sp. J 1436508 after 24 hrs; format: functional; details: J 1436508, 24 h
[8] = test system: Enterococcus sp.; assay: Antimicrobial activity against clinical isolate Enterococcus sp. J 1436508 after 48 hrs; format: functional; details: J 1436508, 48 h
[9] = test system: Escherichia coli; assay: Antimicrobial activity against clinical isolate Escherichia coli CCM 4517 after 24 hrs; format: functional; details: CCM 4517, 24 h
[10] = test system: Escherichia coli; assay: Antimicrobial activity against clinical isolate Escherichia coli CCM 4517 after 48 hrs; format: functional; details: CCM 4517, 48 h
[11] = test system: Klebsiella pneumoniae; assay: Antimicrobial activity against clinical isolate Klebsiella pneumoniae D 1175008 after 24 hrs; format: functional; details: D 1175008, 24 h
[12] = test system: Klebsiella pneumoniae; assay: Antimicrobial activity against clinical isolate Klebsiella pneumoniae D 1175008 after 48 hrs; format: functional; details: D 1175008, 48 h
[13] = test system: Klebsiella pneumoniae; assay: Antimicrobial activity against clinical isolate ESBL-Klebsiella pneumoniae J 1436808 after 24 hrs; format: functional; details: J 1436808, 24 h
[14] = test system: Klebsiella pneumoniae; assay: Antimicrobial activity against clinical isolate ESBL-Klebsiella pneumoniae J 1436808 after 48 hrs; format: functional; details: J 1436808, 48 h
[15] = test system: Pseudomonas aeruginosa; assay: Antimicrobial activity against clinical isolate Pseudomonas aeruginosa CCM 1961 after 72 hrs; format: functional; details: CCM 1961, 72 h
[16] = test system: Pseudomonas aeruginosa; assay: Antimicrobial activity against clinical isolate Pseudomonas aeruginosa CCM 1961 after 120 hrs; format: functional; details: CCM 1961, 120 h
[17] = test system: Candida albicans; assay: Antimicrobial activity against Candida albicans ATCC 44859 after 24 hrs by spectrophotometry; format: functional; details: ATCC 44859, 24 h
[18] = test system: Aspergillus fumigatus; assay: Antimicrobial activity against Aspergillus fumigatus 231 after 24 hrs by spectrophotometry; format: functional; details: Aspergillus fumigatus, 231, 24 h
[19] = test system: Candida albicans; assay: Antimicrobial activity against Candida albicans ATCC 44859 after 48 hrs by spectrophotometry; format: functional; details: ATCC 44859, 48 h
[20] = test system: Candida tropicalis; assay: Antimicrobial activity against Candida tropicalis 156 after 24 hrs by spectrophotometry; format: functional; details: Candida tropicalis, 156, 24 h
[21] = test system: Candida tropicalis; assay: Antimicrobial activity against Candida tropicalis 156 after 48 hrs by spectrophotometry; format: functional; details: Candida tropicalis, 156, 48 h
[22] = test system: Pichia kudriavzevii; assay: Antimicrobial activity against Candida krusei E28 after 24 hrs by spectrophotometry; format: functional; details: E28, 24 h
[23] = test system: Pichia kudriavzevii; assay: Antimicrobial activity against Candida krusei E28 after 48 hrs by spectrophotometry; format: functional; details: E28, 48 h
[24] = test system: Nakaseomyces glabratus; assay: Antimicrobial activity against Candida glabrata 20/I after 24 hrs by spectrophotometry; format: functional
[25] = test system: Nakaseomyces glabratus; assay: Antimicrobial activity against Candida glabrata 20/I after 48 hrs by spectrophotometry; format: functional
[26] = test system: Trichosporon asahii; assay: Antimicrobial activity against Trichosporon asahii 1188 after 24 hrs by spectrophotometry; format: functional; details: Trichosporon asahii, 1188, 24 h
[27] = test system: Trichosporon asahii; assay: Antimicrobial activity against Trichosporon asahii 1188 after 48 hrs by spectrophotometry; format: functional; details: Trichosporon asahii, 1188, 48 h
[28] = test system: Aspergillus fumigatus; assay: Antimicrobial activity against Aspergillus fumigatus 231 after 48 hrs by spectrophotometry; format: functional; details: Aspergillus fumigatus, 231, 48 h
[29] = test system: Lichtheimia corymbifera; assay: Antimicrobial activity against Absidia corymbifera 272 after 24 hrs by spectrophotometry; format: functional; details: Lichtheimia corymbifera, 272, 24 h
[30] = test system: Lichtheimia corymbifera; assay: Antimicrobial activity against Absidia corymbifera 272 after 48 hrs by spectrophotometry; format: functional; details: Lichtheimia corymbifera, 272, 48 h
[31] = test system: Trichophyton mentagrophytes; assay: Antimicrobial activity against Trichophyton mentagrophytes 445 after 72 hrs by spectrophotometry; format: functional; details: Trichophyton mentagrophytes, 445, 72 h
[32] = test system: Trichophyton mentagrophytes; assay: Antimicrobial activity against Trichophyton mentagrophytes 445 after 120 hrs by spectrophotometry; format: functional; details: Trichophyton mentagrophytes, 445, 120 h
[33] = Cytotoxicity against CHOK1 cells after 24 hrs by MTT assay; format: cell-based; details: Cricetulus griseus, CHO-K1, 24 h

`CCCCCCCCCCCCCC[n+]1ccc2ccccc2c1` showed an MIC [1] of 0.5 µM, an MBC [2] of 1 µM and an MIC [2] of 0.5 µM. The MIC [3] was 0.5 µM, the MBC [4] was 1 µM and the MIC [4] was 0.5 µM. The MIC [5] was 0.5 µM, the MBC [6] was 1 µM and the MIC [6] was 0.5 µM. It also gave an MIC [7] of 0.5 µM, an MBC [8] of 3.9 µM and an MIC [8] of 0.5 µM. For the same molecule, the MIC [9] was 2 µM, the MBC [10] was 3.9 µM and the MIC [10] was 2 µM. For the same molecule, the MIC [11] was 3.9 µM, the MBC [12] was 3.9 µM and the MIC [12] was 3.9 µM. For the same molecule, the MIC [13] was 31 µM, the MBC [14] was 31 µM and the MIC [14] was 31 µM. It also gave an MIC [15] of 63 µM, an MBC [16] of 63 µM and an MIC [16] of 63 µM. It also gave an MIC [17] of 0.5 µM, an MIC [18] of 7.8 µM and an MFC [19] of 1 µM. For the same molecule, the MIC [19] was 0.5 µM, the MIC [20] was 0.5 µM and the MFC [21] was 1 µM. It also gave an MIC [21] of 0.5 µM, an MIC [22] of 0.5 µM and an MFC [23] of 1 µM. For the same molecule, the MIC [23] was 0.5 µM, the MIC [24] was 0.5 µM and the MFC [25] was 3.9 µM. It also gave an MIC [25] of 0.5 µM, an MIC [26] of 3.9 µM and an MFC [27] of 3.9 µM. The MIC [27] was 3.9 µM, the MFC [28] was 7.8 µM and the MIC [28] was 7.8 µM. It also gave an MIC [29] of 31 µM, an MFC [30] of 250 µM and an MIC [30] of 31 µM. For the same molecule, the MIC [31] was 3.9 µM, the MFC [32] was 16 µM and the MIC [32] was 3.9 µM. For the same molecule, the pIC50 [33] was 5.05.

Molecule `CCCCCCCCCCCCCCCC[n+]1ccc2ccccc2c1` has an MIC [1] of 1 µM, an MBC [2] of 2 µM and an MIC [2] of 1 µM. For the same molecule, the MIC [3] was 1 µM, the MBC [4] was 2 µM and the MIC [4] was 1 µM. For the same molecule, the MIC [5] was 0.5 µM, the MBC [6] was 2 µM and the MIC [6] was 0.5 µM. It also gave an MIC [7] of 1 µM, an MBC [8] of 3.9 µM and an MIC [8] of 1 µM. For the same molecule, the MIC [9] was 3.9 µM, the MBC [10] was 3.9 µM and the MIC [10] was 3.9 µM. For the same molecule, the MIC [11] was 3.9 µM, the MBC [12] was 7.8 µM and the MIC [12] was 3.9 µM. It also gave an MIC [13] of 7.8 µM, an MBC [14] of 31 µM and an MIC [14] of 7.8 µM. The MIC [15] was 125 µM, the MBC [16] was 125 µM and the MIC [16] was 125 µM. The MIC [17] was 2 µM, the MIC [18] was 3.9 µM and the MFC [19] was 2 µM. For the same molecule, the MIC [19] was 2 µM, the MIC [20] was 2 µM and the MFC [21] was 2 µM. The MIC [21] was 2 µM, the MIC [22] was 2 µM and the MFC [23] was 2 µM. For the same molecule, the MIC [23] was 2 µM, the MIC [24] was 2 µM and the MFC [25] was 2 µM. It also gave an MIC [25] of 2 µM, an MIC [26] of 3.9 µM and an MFC [27] of 3.9 µM. For the same molecule, the MIC [27] was 3.9 µM, the MFC [28] was 3.9 µM and the MIC [28] was 3.9 µM. For the same molecule, the MIC [29] was 16 µM, the MFC [30] was 125 µM and the MIC [30] was 16 µM. It also gave an MIC [31] of 2 µM, an MFC [32] of 7.8 µM and an MIC [32] of 2 µM. It also gave a pIC50 [33] of 5.15.
